Here are results for six compounds from BindingDB's records for patent US20240140931 (Hutchmed, 2024).

The structures appear in SMILES notation.

This assay concerns the target T1, Tyrosine-protein phosphatase non-receptor type 11 (Homo sapiens, UniProt Q06124).
T1 sequence (Q06124 whole entry): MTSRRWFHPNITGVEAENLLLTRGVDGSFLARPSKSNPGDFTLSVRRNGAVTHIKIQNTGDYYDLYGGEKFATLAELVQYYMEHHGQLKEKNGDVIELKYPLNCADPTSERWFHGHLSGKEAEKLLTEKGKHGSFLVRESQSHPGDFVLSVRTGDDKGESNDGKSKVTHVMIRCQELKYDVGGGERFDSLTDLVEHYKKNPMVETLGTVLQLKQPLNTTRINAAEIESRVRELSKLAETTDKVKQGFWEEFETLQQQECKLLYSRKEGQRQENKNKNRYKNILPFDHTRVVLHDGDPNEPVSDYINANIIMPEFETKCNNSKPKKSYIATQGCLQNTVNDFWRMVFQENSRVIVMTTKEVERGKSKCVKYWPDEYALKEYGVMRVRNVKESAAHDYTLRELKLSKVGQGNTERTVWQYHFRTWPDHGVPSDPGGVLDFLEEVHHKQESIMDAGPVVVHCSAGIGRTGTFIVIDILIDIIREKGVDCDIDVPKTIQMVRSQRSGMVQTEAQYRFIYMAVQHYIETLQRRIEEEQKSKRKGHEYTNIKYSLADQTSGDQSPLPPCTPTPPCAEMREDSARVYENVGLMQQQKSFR
Nature of the assay: Assay of Full-Length SHP2 Phosphatase Activity Assay. As to the method: 1. Reagents and MaterialsHuman full-length SHP2 recombinant protein: BPS Bioscience, Cat #79018;SHP2 substrate DiFMUP (1 mM): BPS Bioscience, Cat #79769;SHP2 activating peptide (100 μM): BPS Bioscience, Cat #79319-2;DTT: Merck, Cat #DTT-RO;384-well plate: Corning, Cat #3575;96-well plate: Thermo Fisher Scientific, Cat #249952;Instrument: EnVision 2104, PerkinElmer.2. Preparation of Reaction SolutionsThe test compound was dissolved in DMSO and diluted with DMSO to 100.0 μM, and the compound was further 3-fold diluted with DMSO to: 100.00, 33.33, 11.11, 3.70, 1.23, 0.41, 0.14 and 0.05 μM.
The compound `C#Cc1ccc2c(c1)[C@@H](N)C1(CCN(c3cc(=O)n(-c4cc(OC)ccc4Cl)c(C)n3)CC1)C2` [US20240140931, Compound 44] yielded an IC50 of 13 nM.

With `Cc1nc(N2CCC3(CC2)Cc2ccc(SC4COC4)cc2[C@H]3N)cc(=O)n1-c1cccc(Cl)c1Cl` [US20240140931, Compound 81], the half-maximal inhibitory concentration (IC50) is 2 nM.

With `C#Cc1ccc2c(c1)[C@@H](N)C1(CCN(c3cc(=O)n(-c4cccc(C#N)c4Cl)c(C)n3)CC1)C2` [US20240140931, Compound 267], the IC50 was more than 100 nM.

Take `Cc1nc(N2CCC3(CC2)Cc2ccc(C#CCN(C)C)cc2[C@H]3N)cc(=O)n1-c1cccc(Cl)c1Cl` [US20240140931, Compound 52]: the IC50 was less than 0.5 nM.

Turning to `C#Cc1ccc2c(c1)[C@@H](N)C1(CCN(c3cc(=O)n(-c4cccc(C#N)c4Cl)c(C)n3)CC1)C2` [US20240140931, Compound 268], it took 1 nM to reach half-maximal inhibition (IC50). In other words, the single-digit nanomolar range.

The compound `C#Cc1ccc2c(c1)[C@@H](N)C1(CCN(c3cc(=O)n(-c4ccc(F)c(F)c4Cl)c(C)n3)CC1)C2` (atropisomer, axis not shown) [US20240140931, Compound 113] gave an IC50 of 5 nM. This IC50 lies about 5-fold higher than the previous one.
